In PubChem BioAssay AID1918947 (Molecular Pharmacology Branch, DTP, NCI, 2023):

Test system: A498 complex spheroid viability
Experiment: Anticancer human tumor A498 cell line growth inhibition;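 also: spheroids exposed to agents for seven days before readout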;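 as to viability, T/C: 100% = DMSO vehicle-treated spheroids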
Details: for viability, T/C: stronger effect = lower value
Procedure, shortened: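 Drug combinations with the LSD1 inhibitor iadademstat tested on tumor cells co-cultured as spheroids with endothelial cells and mesenchymal stem cells. Concentrations descended in half-log increments from clinical Cmax or 10 microM.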

[1] = curve of first compound, second compound 0.1 µM
[2] = curve of first compound, second compound 0.316 µM
[3] = curve of first compound, second compound 1 µM
[4] = curve of first compound, second compound 3.16 µM
[5] = curve of first compound, second compound 10 µM
[6] = second compound 0.1 µM, first compound 0.0316 µM
[7] = second compound 0.1 µM, first compound 0.1 µM
[8] = second compound 0.1 µM, first compound 0.316 µM
[9] = second compound 0.1 µM, first compound 1 µM
[10] = second compound 0.1 µM, first compound 3.16 µM
[11] = second compound 0.1 µM, first compound 10 µM
[12] = second compound 0.316 µM, first compound 0.0316 µM
[13] = second compound 0.316 µM, first compound 0.1 µM
[14] = second compound 0.316 µM, first compound 0.316 µM
[15] = second compound 0.316 µM, first compound 1 µM
[16] = second compound 0.316 µM, first compound 3.16 µM
[17] = second compound 0.316 µM, first compound 10 µM
[18] = second compound 1 µM, first compound 0.0316 µM
[19] = second compound 1 µM, first compound 0.1 µM
[20] = second compound 1 µM, first compound 0.316 µM
[21] = second compound 1 µM, first compound 1 µM
[22] = second compound 1 µM, first compound 3.16 µM
[23] = second compound 1 µM, first compound 10 µM
[24] = second compound 3.16 µM, first compound 0.0316 µM
[25] = second compound 3.16 µM, first compound 0.1 µM
[26] = second compound 3.16 µM, first compound 0.316 µM
[27] = second compound 3.16 µM, first compound 1 µM
[28] = second compound 3.16 µM, first compound 3.16 µM
[29] = second compound 3.16 µM, first compound 10 µM
[30] = second compound 10 µM, first compound 0.0316 µM
[31] = second compound 10 µM, first compound 0.1 µM
[32] = second compound 10 µM, first compound 0.316 µM
[33] = second compound 10 µM, first compound 1 µM
[34] = second compound 10 µM, first compound 3.16 µM
[35] = second compound 10 µM, first compound 10 µM

SMILES	IC50 [1] [nM]	IC50 [2] [nM]	IC50 [3] [nM]	IC50 [4] [nM]	IC50 [5] [nM]	viability, T/C [6] [%]	viability, T/C [7] [%]	viability, T/C [8] [%]	viability, T/C [9] [%]	viability, T/C [10] [%]	viability, T/C [11] [%]	viability, T/C [12] [%]	viability, T/C [13] [%]	viability, T/C [14] [%]	viability, T/C [15] [%]	viability, T/C [16] [%]	viability, T/C [17] [%]	viability, T/C [18] [%]	viability, T/C [19] [%]	viability, T/C [20] [%]	other results
COc1ccc([C@@H](O)c2cc(-c3ncnc4cc(N5CCOCC5)ccc34)c(F)cc2Cl)nn1 + NC1CC1c1ccc(-c2cccc(O)c2)cc1	96.3	112	96.2	89	69.9	75	49.5	28.1	16.7	9.62	5.97	80.4	52.9	28.8	19.5	9.72	6.4	70.6	50.1	27.4	viability, T/C [21]: 17.2%; viability, T/C [22]: 9.2%; viability, T/C [23]: 6.15%; viability, T/C [24]: 73.1%; viability, T/C [25]: 46.8%; viability, T/C [26]: 29.7%; viability, T/C [27]: 16.7%; viability, T/C [28]: 8.9%; viability, T/C [29]: 5.52%; viability, T/C [30]: 67.1%; viability, T/C [31]: 42.5%; viability, T/C [32]: 24.5%; viability, T/C [33]: 16.6%; viability, T/C [34]: 8.67%; viability, T/C [35]: 5.51%
COc1ccc([C@@H](O)c2cc(-c3ncnc4cc(N5CCOCC5)ccc34)c(F)cc2Cl)nn1 + NC1CCC(NC2CC2c2ccccc2)CC1	113	154	128	130	126	80.5	53.5	28.8	20.4	11	6.4	79.6	58.5	35.6	23.3	12	6.71	70.6	55.2	32.8	viability, T/C [21]: 19.6%; viability, T/C [22]: 10.3%; viability, T/C [23]: 6.44%; viability, T/C [24]: 69.3%; viability, T/C [25]: 54.4%; viability, T/C [26]: 35.4%; viability, T/C [27]: 21%; viability, T/C [28]: 9.68%; viability, T/C [29]: 5.91%; viability, T/C [30]: 66.8%; viability, T/C [31]: 54.1%; viability, T/C [32]: 35.2%; viability, T/C [33]: 23.5%; viability, T/C [34]: 10.1%; viability, T/C [35]: 5.83%
NC1CC1c1ccc(-c2cccc(O)c2)cc1 (stereo not drawn)																					viability, T/C (compound 0.316 µM): 104% [middle of 25 runs]; viability, T/C (compound 10 µM): 94.1% [middle of 25 runs]; IC50 (compound alone, run of 12/07/2021): > 10000 nM
CC1(C)CCC(CN2CCN(c3ccc(C(=O)NS(=O)(=O)c4ccc(NCC5CCOCC5)c([N+](=O)[O-])c4)c(Oc4cnc5[nH]ccc5c4)c3)CC2)=C(c2ccc(Cl)cc2)C1 + NC1CCC(NC2CC2c2ccccc2)CC1	3670	3890	3470	2710	1970	87.7	89.2	85.5	76.4	57.5	3.91	87.2	92.6	91.3	79.1	60.7	4.52	84.5	86.2	85.1	viability, T/C [21]: 76.9%; viability, T/C [22]: 54.3%; viability, T/C [23]: 3.45%; viability, T/C [24]: 82.5%; viability, T/C [25]: 85.5%; viability, T/C [26]: 80%; viability, T/C [27]: 70.2%; viability, T/C [28]: 47%; viability, T/C [29]: 3.58%; viability, T/C [30]: 81.1%; viability, T/C [31]: 75.2%; viability, T/C [32]: 76.5%; viability, T/C [33]: 65.2%; viability, T/C [34]: 39.2%; viability, T/C [35]: 2.98%
